Experimental data: patent US11076596B2, “Substituted trifluoromethyloxadiazoles for combating phytopathogenic fungi” (BASF SE, priority 2017, dated 2021)

For `CO/N=C1\CCCC1NC(=O)c1ccc(-c2noc(C(F)(F)F)n2)cc1` (stereo not shown) [Ex-1, N-[(2E)-2-methoxyiminocyclopentyl]-4-[5-(trifluoromethyl)-1,2,4-oxadiazol-3-yl]benzamide], the melting point was 175 °C.
